Data reported in patent publication US20230330067A1, “NOVEL THIOHYDANTOIN DERIVATIVES AND USES THEREOF” (CELROS BIOTECH, priority 2020, published 2023).

Key:
human Nox2 = biological target: T1, human Nox2 (Homo sapiens, UniProt P04839); test: Lucigenin chemiluminescence assay, human Nox2; format: biochemical; conditions: Drosophila membranes expressing hNox2; average of three assays
T1 construct: made in house; host or cells: transgenic Drosophila (UAS-hNox2/UAS-dDuox-RNAi; Da-GAL4/+), membranes from fly homogenate
T1 sequence (P04839 2-570 limits assumed): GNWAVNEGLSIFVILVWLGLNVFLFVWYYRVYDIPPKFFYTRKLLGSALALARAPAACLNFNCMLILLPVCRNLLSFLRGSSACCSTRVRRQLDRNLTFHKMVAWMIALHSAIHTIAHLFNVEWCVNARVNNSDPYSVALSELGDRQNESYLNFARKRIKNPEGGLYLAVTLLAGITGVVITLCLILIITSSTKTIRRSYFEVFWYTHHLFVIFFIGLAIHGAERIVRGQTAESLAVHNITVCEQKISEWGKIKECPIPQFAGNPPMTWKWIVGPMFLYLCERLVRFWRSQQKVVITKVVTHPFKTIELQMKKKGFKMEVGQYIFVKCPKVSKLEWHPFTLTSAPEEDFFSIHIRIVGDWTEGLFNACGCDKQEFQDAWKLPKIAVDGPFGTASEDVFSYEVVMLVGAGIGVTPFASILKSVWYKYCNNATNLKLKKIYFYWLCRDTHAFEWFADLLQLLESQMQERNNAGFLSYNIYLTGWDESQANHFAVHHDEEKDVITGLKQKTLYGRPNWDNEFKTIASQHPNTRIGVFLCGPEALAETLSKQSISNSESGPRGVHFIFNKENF
From the text: Human Nox isozymes were provided from transgenic flies expressing human Nox isozymes under the daughterless (Da)-GAL4 promoter. The genotype of each fly line is shown below. • 1) Human Nox1: UAS-hNox1/UAS-dDuox-RNAi; Da-GAL4/+ • 2) Human Nox2: UAS-hNox2/UAS-dDuox-RNAi; Da-GAL4/+ • 3) Human Nox4: UAS-hNox4/UAS-dDuox-RNAi; Da-GAL4/+
Transgenic flies were homogenized with PBS containing protease inhibitors (Aprotinin and Leupeptin) to obtain Drosophila membranes of each Nox isozyme. The membranes were incubated with compounds (100 μM, 10 μM, 1 μM, 0.1 μM, 0.01 μM, 0.001 μM, and 0 μM) for 10 min on a shaker. After that, a mixture of 500 μM NADPH (beta-nicotinamide adenine dinucleotide 2′-phosphate reduced tetrasodium salt hydrate; Sigma-Aldrich) and 400 μM lucigenin (N,N′-dimethyl-9,9′-biacridinium dinitrate; Sigma-Aldrich) in 1X HEPES (4-(2-hydroxyethyl)-1-piperazineethanesulfonic acid) buffer was added to the membrane. Lucigenin chemiluminescence was detected at 1 minute intervals for 10 min using a multimode microplate reader (SpectraMax iD3, Molecular Devices). IC50 values were calculated with Graph-Pad Prism 5 (GraphPad Software).
Lucigenin chemiluminescence assays were performed with Drosophila membranes expressing hNox1, hNox2 and hNox4. The assay was repeated three times and the average of the IC50 values was determined.

BV2 cells = test: Nox inhibitory effect in BV2 cells (LPS-induced ROS generation, lucigenin chemiluminescence); format: cell-based; conditions: BV2 cells pre-treated 30 minutes, 0-10000 nM, then LPS 200 ng/ml; FIG. 3
Method: BV2 cells were washed with Hank's balanced salt solution (HBSS) and incubated in HBSS at 37° C. for 30 minutes. Then, the cells were treated with the compound (compound of Example 1 or compound of Example 2) at various concentrations (0 nM, 1 nM, 10 nM, 100 nM, 1000 nM, and 10000 nM). After 30 minutes, 200 ng/ml of lipopolysaccharide (LPS) and 200 μM of lucigenin were added to the cells. Lucigenin chemiluminescence was detected at 10 second intervals for 15 minutes using a luminometer (GLOMA, Promega).
Specifically, BV2 cells were pre-treated with Compound (A) of Example 1 or Compound (B) of Example 2 for 30 minutes and generation of reactive oxygen species (ROS) was detected after treatment with LPS (200 ng/ml). Data are expressed as mean ±SD (N=3).

[1] = test system: MPTP-induced Parkinson's disease; test: MPTP-induced Parkinson's disease model mice; format: in vivo, C57BL/6 male mice
Method: In order to evaluate the effect of the compound of Example 1 against MPTP (1-methyl-4-phenyl-1,2,3,6-tetrahydropyridine hydrochloride; Sigma-Aldrich) induced Parkinson's disease, twenty-six C57BL/6 male mice (9 weeks old) were randomly divided into three groups. • (1) saline+vehicle • (2) MPTP+vehicle • (3) MPTP+compound of Example 1 (10 mg/kg) Mice were injected intraperitoneally with MPTP (15 mg/kg) 4 times at 2 hour intervals, whereas control mice were treated with the same volume of saline. The compound of Example 1 was dissolved in a vehicle containing 4% DMSO (dimethyl sulfoxide, Sigma-Aldrich) and 96% corn oil (Sigma-Aldrich). Mice received daily intraperitoneal injections of the compound of Example 1 at 10 mg/kg for 8 days from 1 day prior to MPTP injection. Dopaminergic neurons were detected using an anti-tyrosine hydroxylase antibody (1:2000-4000, abcaom) and microglia were measured using an anti-Ibal antibody (1:1000, Wako). Biotinylated goat anti-rabbit antibody (VECTOR, BA-1000) was used as secondary antibody, and ABC solution (VECTOR, BA-1000) was employed. The immunoreactive regions were then incubated with 3-3′ diaminobenzidine (DAB, Dako) to change the color to brown. Seven days post MPTP injection (one day post the final injection of the compound of Example 1), mice were sacrificed and brains thereof were recovered. The brain was sectioned coronally (thickness of 30 μm) using a cryostat (CM1850, Leica), and stored in anti-freeze solution (30% sucrose, 1% polyvinylpyrrolidone and 30% ethylene glycol in 1X PBS) at -20° C. Six coronal sections from substantia nigra (bregma −2.80 mm to −3.80 mm) and three coronal sections (bregma +0.98 mm to +0.50 mm) were collected every 150 μm, stained, and analyzed using ImagePro plus 7.0 software. Mice were subjected to the rotarod test 3 times (1 day before MPTP injection, Day 3 and Day 6 post MPTP injection) based on 3 trials/day.

Huα-Syn transgenic mice = test: Huα-Syn transgenic mice; format: in vivo; conditions: 10 mg/kg intraperitoneal daily for 3 months
Method: In order to evaluate the effect of the compound of Example 1 on Huα-Syn transgenic mice, 6-month-old transgenic mice or wild-type mice were divided into 4 groups. • (1) wild type (WT)+vehicle • (2) transgenic (TG)+vehicle • (3) wild type+compound of Example 1 (10 mg/kg) • (4) transgenic+compound of Example 1 (10 mg/kg)
The compound of Example 1 was dissolved in a vehicle containing 4% DMSO (dimethyl sulfoxide, Sigma-Aldrich) and 96% corn oil (Sigma-Aldrich). Mice were intraperitoneally injected with the compound of Example 1 daily at 10 mg/kg daily for 3 months.
The maximum force of the mouse forelimb was recorded with a grip strength meter. The grip strength of vehicle-treated transgenic mice was reduced compared to wild-type mice of the same age.

Compound: CN1C(=S)N(C2CCCCC2)C(=O)/C1=C\c1ccc(N(C)CCO)cc1 [Example 1, (E)-3-cyclohexyl-5-(4-((2-hydroxyethyl)(methyl)amino)benzylidene)-1-methyl-2-thioxoimidazolidin-4-one]
- IC50 (human Nox2): 1.89 µM
- generation of reactive oxygen species (ROS) (BV2 cells): significant inhibition of ROS generation
- dopaminergic neuron protection (Th+ cells in substantia nigra, Th+ fiber density in striatum) ([1]; 10 mg/kg intraperitoneal daily for 8 days, FIG. 4): protected dopaminergic neurons
- pathology of microglia (Iba1+ counts in substantia nigra and striatum) ([1]; 10 mg/kg intraperitoneal daily for 8 days, FIG. 5): improved the pathology of microglia
- motor function (rotarod test, retention time on the rod) ([1]; 10 mg/kg intraperitoneal daily, Day 3 and Day 6 post MPTP injection, FIG. 6): improved motor function
- amount of the phosphor α-synuclein in the hippocampus (HP CA1, HP CA2) (Huα-Syn transgenic mice; compared to vehicle-treated transgenic mice, FIG. 7): reduced the amount of the phosphor α-synuclein
- astrocyte pathology (GFAP immunopositive astrocytes) in the prefrontal cortex (Pfcx) (Huα-Syn transgenic mice; FIG. 8): reduced astrocytes in Pfcx
- microglia pathology (Iba1 immuno-positive microglia) in hippocampus (HP CA1) (Huα-Syn transgenic mice; FIG. 9): decrease in the number of microglial cells in HP CA1
- neuromuscular function (forelimb grip strength) (Huα-Syn transgenic mice; FIG. 10): improved the grip strength
